Data: the supplement of paper PMC10307832

Assays:
Assay in all cases: relative viability (nuclei count vs DMSO), 5 days (fraction); higher = more cells survive
AZD8055 + Crizotinib = compound: COc1ccc(-c2ccc3c(N4CCOC[C@@H]4C)nc(N4CCOC[C@@H]4C)nc3n2)cc1CO [AZD8055] + C[C@@H](Oc1cc(-c2cnn(C3CCNCC3)c2)cnc1N)c1c(Cl)ccc(F)c1Cl [Crizotinib] (partner 1 µM)
Summary of the method: (§1)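 Cells from lung cancer lines were seeded into 1536-well plates and, one day later, dosed by pin tool. Treatments were either a single drug or a fixed dose of an anchor drug with five library-drug doses (not always all listed) in √10 steps. After 5 days, nuclei were stained in a one-step fixation (final 0.05% Triton X-100, 1% formaldehyde, 1 ug/ml Hoechst) and counted on 4× images, and relative viability is the treated-to-vehicle nuclei ratio, as the median of duplicate plates.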

AZD8055 + Phenformin = compound: COc1ccc(-c2ccc3c(N4CCOC[C@@H]4C)nc(N4CCOC[C@@H]4C)nc3n2)cc1CO [AZD8055] + N=C(N)NC(=N)NCCc1ccccc1 [Phenformin] (partner 250 µM)
Summary of the method: as §1

AZD8055 + Navitoclax = compound: COc1ccc(-c2ccc3c(N4CCOC[C@@H]4C)nc(N4CCOC[C@@H]4C)nc3n2)cc1CO [AZD8055] + CC1(C)CCC(c2ccc(Cl)cc2)=C(CN2CCN(c3ccc(C(=O)NS(=O)(=O)c4ccc(N[C@H](CCN5CCOCC5)CSc5ccccc5)c(S(=O)(=O)C(F)(F)F)c4)cc3)CC2)C1 [Navitoclax] (partner 0.5 µM)
Summary of the method: as §1

AZD8055 + Decitabine = compound: COc1ccc(-c2ccc3c(N4CCOC[C@@H]4C)nc(N4CCOC[C@@H]4C)nc3n2)cc1CO [AZD8055] + Nc1ncn([C@H]2C[C@H](O)[C@@H](CO)O2)c(=O)n1 [Decitabine] (partner 2 µM)
Summary of the method: as §1

| Cell Line | relative viability (AZD8055 + Crizotinib; first compound 0.01 µM) | relative viability (AZD8055 + Crizotinib; first compound 0.03162 µM) | relative viability (AZD8055 + Crizotinib; first compound 0.1 µM) | relative viability (AZD8055 + Crizotinib; first compound 0.3162 µM) | relative viability (AZD8055 + Crizotinib; first compound 1 µM) | relative viability (AZD8055 + Phenformin; first compound 0.01 µM) | relative viability (AZD8055 + Phenformin; first compound 0.03162 µM) | relative viability (AZD8055 + Phenformin; first compound 0.1 µM) | relative viability (AZD8055 + Phenformin; first compound 0.3162 µM) | relative viability (AZD8055 + Phenformin; first compound 1 µM) | relative viability (AZD8055 + Navitoclax; first compound 0.01 µM) | relative viability (AZD8055 + Navitoclax; first compound 0.03162 µM) | relative viability (AZD8055 + Navitoclax; first compound 0.1 µM) | relative viability (AZD8055 + Navitoclax; first compound 0.3162 µM) | relative viability (AZD8055 + Navitoclax; first compound 1 µM) | relative viability (AZD8055 + Decitabine; first compound 0.01 µM) | relative viability (AZD8055 + Decitabine; first compound 0.03162 µM) | relative viability (AZD8055 + Decitabine; first compound 0.1 µM) | relative viability (AZD8055 + Decitabine; first compound 0.3162 µM) | relative viability (AZD8055 + Decitabine; first compound 1 µM) |
| --- | --- | --- | --- | --- | --- | --- | --- | --- | --- | --- | --- | --- | --- | --- | --- | --- | --- | --- | --- | --- |
| NCI-H2085 | 0.927 | 0.805 | 0.639 | 0.359 | 0.315 | 0.739 | 0.67 | 0.417 | 0.34 | 0.314 | 1.11 | 0.945 | 0.672 | 0.417 | 0.33 | 0.576 | 0.512 | 0.379 | 0.456 | 0.426 |
| NCI-H2087 | 1.21 | 0.972 | 0.801 | 0.415 | 0.485 | 0.555 | 0.41 | 0.422 | 0.242 | 0.232 | 0.911 | 0.951 | 0.703 | 0.421 | 0.309 | 0.28 | 0.182 | 0.236 | 0.153 | 0.113 |
| NCI-H2126 | 0.997 | 1.02 | 0.926 | 0.617 | 0.494 | 0.488 | 0.503 | 0.438 | 0.349 | 0.379 | 0.801 | 0.763 | 0.641 | 0.487 | 0.345 | 0.623 | 0.499 | 0.485 | 0.434 | 0.331 |
| NCI-H2170 | 1.2 | 1.07 | 0.641 | 0.394 | 0.376 | 0.438 | 0.437 | 0.471 | 0.407 | 0.341 | 0.59 | 0.517 | 0.295 | 0.189 | 0.191 | 0.537 | 0.363 | 0.456 | 0.252 | 0.218 |
| NCI-H2347 | 0.601 | 0.509 | 0.402 | 0.332 | 0.531 | 0.381 | 0.283 | 0.338 | 0.178 | 0.205 | 0.859 | 0.595 | 0.453 | 0.339 | 0.24 | 0.625 | 0.533 | 0.533 | 0.495 | 0.374 |
| NCI-H2405 | 0.804 | 0.815 | 0.681 | 0.516 | 0.311 | 0.399 | 0.368 | 0.341 | 0.302 | 0.275 | 0.939 | 0.93 | 0.708 | 0.392 | 0.291 | 0.79 | 0.715 | 0.593 | 0.363 | 0.339 |
| NCI-H3122 | 0.248 | 0.238 | 0.183 | 0.174 | 0.171 | 0.444 | 0.425 | 0.428 | 0.233 | 0.204 | 1.13 | 1.05 | 0.687 | 0.435 | 0.348 | 0.442 | 0.341 | 0.3 | 0.149 | 0.129 |
| PC-3 [JPC-3] | 1.06 | 1.05 | 1.01 | 0.712 | 0.53 | 0.464 | 0.479 | 0.47 | 0.464 | 0.456 | 0.83 | 0.847 | 0.775 | 0.575 | 0.421 | 0.902 | 0.912 | 0.797 | 0.758 | 0.614 |
| PC-14 | 1.06 | 1.02 | 0.771 | 0.448 | 0.21 | 0.857 | 0.595 | 0.284 | 0.216 | 0.167 | 1.15 | 1.16 | 1.02 | 0.405 | 0.351 | 0.288 | 0.227 | 0.238 | 0.186 | 0.159 |
| RERF-LC-KJ | 0.863 | 0.974 | 0.756 | 0.578 | 0.452 | 0.374 | 0.378 | 0.383 | 0.303 | 0.303 | 0.925 | 0.838 | 0.586 | 0.428 | 0.333 | 0.589 | 0.68 | 0.666 | 0.383 | 0.395 |
| SK-LU-1 | 0.743 | 0.767 | 0.335 | 0.475 | 0.376 | 0.526 | 0.436 | 0.288 | 0.247 | 0.226 | 1.16 | 0.788 | 1.23 | 0.526 | 0.332 | 0.64 | 0.547 | 0.568 | 0.422 | 0.343 |
| SK-MES-1 | 0.94 | 0.944 | 0.781 | 0.494 | 0.318 | 0.658 | 0.645 | 0.608 | 0.311 | 0.216 | 1.05 | 1.25 | 0.818 | 0.404 | 0.342 | 0.395 | 0.34 | 0.333 | 0.269 | 0.246 |
| SW 1573 | 0.777 | 0.812 | 0.449 | 0.317 | 0.21 | 0.324 | 0.218 | 0.193 | 0.163 | 0.14 | 0.869 | 0.855 | 0.646 | 0.304 | 0.21 | 0.496 | 0.316 | 0.38 | 0.195 | 0.189 |
| UMC-11 | 0.543 | 0.535 | 0.321 | 0.29 | 0.189 | 0.353 | 0.311 | 0.311 | 0.264 | 0.213 | 0.295 | 0.277 | 0.248 | 0.173 | 0.134 | 0.575 | 0.472 | 0.492 | 0.317 | 0.364 |
